Data as given in US20220183287A1, “METHODS FOR KILLING PESTS” (The United States of America, as represented by the …, priority 2020, published 2022).
Values joined by “and” are separate entries in the source; they are usually repeats but may differ in a detail not shown here. Equal entries are not always repeated. Marks after values point to notes of the source that are not given here.

Experiments:
M. incognita = conditions: in vivo; cited from earlier work
C. elegans = conditions: during the first hours of incubation; cited from earlier work
X americanum adults = conditions: in vivo; cited from earlier work
Heterodera glycines eggs = assay: Microwell assay: eggs immersed in compounds, hatch and activity of hatched J2; format: in vivo; conditions: 0.1%; for % Active Day 2 / % Active Day 5 / % Active Day 7: J2 hatched from immersed eggs; for Hatch Day 2 / Hatch Day 5 / Hatch Day 7: hatched J2 per well, about 35 eggs per well; for pest or weed control at 0.1 %: Heterodera glycines, 168 h, Day 7, read-out: egg hatch suppression compared with the Tween control
Procedure: (§1) All chemicals were used without further purification.
(§2) These are reported as 0.1% herein.
(§3) The nematodes were then incubated at 26° C. […] Two trials were conducted for each assay.
(§4) The assumptions of the model were checked.

[1] = test system: M. incognita second-stage juveniles; assay: Microwell assay: previously hatched J2 immersed in compounds, activity and viability; conditions: for % Active Day 1 / % Active Day 2: previously hatched J2 in aqueous solution; for viability at 0.1 %: read-out: % Viable Day 3 rinsed; for nonviable (killed) J2: in vivo
Procedure: Nematode cultures: As described in Meyer et al. (Meyer, S. L. F., et al., Nematropica, 46: 85-96 (2016)), M. incognita race 1 (originally isolated in Maryland) was maintained in a greenhouse (24° to 29° C.; natural and supplemental lighting combined for a 16-h daylength) on susceptible cayenne pepper (Capsicum annuum) TA-136′ plants. All greenhouse experiments described herein were conducted under the same conditions. Two to three months after pepper plant inoculation, egg masses were picked from roots. Eggs were separated by 5 min immersion in 0.6% sodium hypochlorite, followed by a rinse in sterile distilled water (SDW). To collect second-stage juveniles (J2) for microwell assays, the surface-sterilized eggs were placed in a hatching chamber (Spectra/Mesh Nylon Filter, openings 25-μm-diam.; Spectrum Laboratories Inc., Rancho Dominguez, Calif.) set in an autoclaved dish that was placed on a rotary shaker for 3 days at 35 rpm. For some M. incognita and H. glycines assays, 25 or […] kanamycin monosulfate (Phytotechnology Laboratories, Shawnee Mission, Kans.) was added to the hatching chamber to prevent growth of bacteria. The collected J2 were then rinsed with water to remove the kanamycin monosulfate.
(§5) Compounds for the studies were purchased from three different companies: methyl benzoate, CAS Number 93-58-3, ≥99% purity; Tween 20, CAS Number: 9005-64-5; Tween 80, CAS Number: 9005-65-6; ethyl benzoate, CAS Number: 93-89-0, natural, ≥99% purity, FCC, FG; vinyl benzoate, CAS Number: 769-78-8, ≥99% purity; n-propyl benzoate, CAS Number: 2315-68-6, 99% purity; n-butyl benzoate, CAS Number: 136-60-7, 99% purity; benzyl benzoate, CAS Number: 120-51-4, natural, ≥99% purity, FCC, FG; methyl 2-methylbenzoate, CAS Number: 89-71-4, 99% purity; methyl 2-chlorobenzoate, CAS Number: 610-96-8, ≥98% purity; methyl 2-methoxybenzoate, CAS Number: 606-45-1, 99% purity and methyl 2-nitrobenzoate, CAS Number: 606-27-9, 98% purity were purchased from Sigma-Aldrich (St. Louis, Mo.). Compounds, iso-butyl benzoate, CAS Number 120-50-3, >98% purity; n-pentyl benzoate, CAS Number: 2049-96-9, ≥98% purity; and n-hexyl benzoate, CAS Number: 6789-88-4, ≥98% purity were purchased from Alfa Aesar (Tewksbury, Mass.). The compounds methyl 3-methoxybenzoate (methyl m-anisate), CAS Number: 5368-81-0; 97% and methyl 3-methylbenzoate (methyl m-toluate), CAS Number: 99-36-5, 97% purity were purchased from TCI America (Portland, Oreg.). All chemicals were used without further purification. Deionized water (DI) containing 1% emulsifier (v/v), Tween 20 and Tween 80, at 1:1 ratio was used to make different VOCs (volatile organic compounds) water solutions and also used as blank control.
(§6) For tests with individual compounds, the concentration of each compound was 0.1% before placement into wells; the final concentration in the wells was 0.095% after addition to eggs or J2 suspended in water. These are reported as 0.1% herein. An exception was Trial 2, M. incognita J2 activity and viability (Table 2): the final concentration was 0.1% after placement in wells. Low concentrations were selected for assays of combined compounds to determine if the combinations would increase nematotoxicity.
(§7) Laboratory assays were conducted in 96-well polystyrene plates following general procedures described in Wen et al. (2019). Each well received approximately 35 J2 (for previously hatched J2 assays) or 35 eggs that each contained either a first-stage juvenile (J1) or a J2. The plates were covered with plastic adhesive sealing film (Excel Scientific, Inc., Victorville Calif.) and then with the plate lids. Parafilm (Bemis, Neenah, Wis.) was used to seal the plates. The nematodes were then incubated at 26° C. […] Following the counts on Day 2, the treatments were removed and the J2 rinsed twice with SDW and incubated in the second rinse. […] Two trials were conducted for each assay.

[2] = test system: H. glycines second-stage juveniles; assay: as above; conditions: for % Active Day 1 / % Active Day 2: previously hatched J2 in aqueous solution; for viability at 0.1 %: Heterodera glycines, 72 h, read-out: % Viable Day 3 rinsed
Procedure: The isolate of H. glycines race 3, originally isolated in Maryland, was maintained on soybean (Glycine max cv. ‘Essex’). As previously described (Wen, Y., et al. Plant Disease, 103: 2191-2198 (2019)), the roots were gently rubbed in water to dislodge cysts and mature females. The egg suspensions were then poured through nested sieves (#20 over /#60; pore sizes 850 μm and 250 μm diam., respectively) into a 454 g/liter sucrose solution. After 15 min, the cysts and females and cysts that floated to the top were collected, rinsed in water, and crushed with a rubber stopper on a #60 sieve (250-μm diam. pore size) that was partially submerged in distilled water. The egg suspension was washed through nested #230 over #500 sieves (pore sizes 63 μm and 25-μm diam., respectively). The eggs were collected in distilled water, and J2 hatched as described above.
as §5, §6, §7
Statistical analyses: The data were analyzed as either a general linear model using JMP or a generalized linear model for the best distribution to fit the residual using Proc Glimmix (Sas Institute). The assumptions of the model were checked. If not met, then appropriate statistical techniques were used so that data could met the assumptions of the models. In Sas, mean comparisons were done with Sidak adjusted p-values to hold the experiment-wise error at 0.05.

M. incognita eggs = assay: Microwell assay: eggs immersed in compounds, hatch and activity of hatched J2; format: in vivo, Meloidogyne incognita; conditions: 0.1%; for % Active Day 2 / % Active Day 5 / % Active Day 7: J2 hatched from immersed eggs; for Hatch Day 2 / Hatch Day 5 / Hatch Day 7: hatched J2 per well, about 35 eggs per well
Procedure: as §1, §2, §3, §4

Caenorhabditis elegans = conditions: produced by Bacillus nematocida; cited from earlier work

SMILES | % Active Day 2 (Heterodera glycines eggs) | % Active Day 5 (Heterodera glycines eggs) | % Active Day 7 (Heterodera glycines eggs) | Hatch Day 2 (Heterodera glycines eggs) | Hatch Day 5 (Heterodera glycines eggs) | Hatch Day 7 (Heterodera glycines eggs) | pest or weed control at 0.1 % (Heterodera glycines eggs) [%] | % Active Day 1 ([1]; 0.1%) | % Active Day 2 ([1]; 0.1%) | viability at 0.1 % ([1]; Meloidogyne incognita, 72 h) [%] | % Active Day 1 ([2]; 0.1%) | % Active Day 2 ([2]; 0.1%) | viability at 0.1 % [2] [%] | % Active Day 2 (M. incognita eggs) | % Active Day 5 (M. incognita eggs) | % Active Day 7 (M. incognita eggs) | Hatch Day 2 (M. incognita eggs) | Hatch Day 5 (M. incognita eggs) | Hatch Day 7 (M. incognita eggs) | nonviable (killed) J2 [1] | further results
CC(=O)c1c(O)cc(O)c(C(C)=O)c1O [DAPG, 2,4-diacetylphloroglucinol] |  |  |  |  |  |  |  |  |  |  |  |  |  |  |  |  |  |  |  |  | egg hatch (M. incognita): decreased egg hatch; hatch (C. elegans): stimulated hatch; toxicity to adults (X americanum adults): toxic
O=C(OCc1ccccc1)c1ccccc1 [BB, Benzyl benzoate] | 15.2 ^cd % | 17.0 ^cde % | 13.5 ^bc % | 4.1 ^cd | 4.5 ^cd | 4.6 ^cd | 64 to 80 | 83.2 ^a % | 83.1 ^a % | 79.9 | 66.4 ^bc % | 60.1 ^abc % | 41.2 | 67.0 ^ab % | 33.5 ^cd % | 24.8 ^b % | 2.6 ^cd | 4.2 ^cde | 4.1 ^de |  | % Viable Day 3 rinsed ([1]; 0.1%, after Day 2 water rinse): did not show a significant difference; reduction in % viable J2 compared with the Tween control ([2]; 0.1%, Day 3 following water rinse): 33%; nematode attraction (Caenorhabditis elegans): nematode attractant
COC(=O)c1cccc(OC)c1 [M3MOB, Methyl 3-methoxybenzoate] | 0 ^e % | 0 ^f % | 6.9 ^bc % | 6.3 ^bcd | 6.4 ^bcd | 6.0 ^cd | 64 | 0 ^f % | 0 ^d % | 0 | 12.2 ^d % | 10.4 ^g % | 11.1 | 0 ^c % | 0 ^e % | 0 ^c % | 2.0 ^cd | 2.7 ^de | 2.8 ^de |  | mortality at 0.1 % ([1]; Meloidogyne incognita, 72 h, read-out: nonviable (killed) J2): 100%
CCCCOC(=O)c1ccccc1 [nBB, n-Butyl benzoate] | 3.6 ^d % | 9.2 ^de % | 8.8 ^bc % | 5.2 ^cd | 5.6 ^cd | 5.4 ^cd | 64 to 80 | 14.8 ^cd % | 5.8 ^c % | 2.9 | 52.7 ^c % | 24.2 ^ef % | 26.3 | 17.1 ^b % | 0 ^e % | 0% and 0 ^c % | 3.3 ^cd | 4.1 ^cde | 4.6 ^de | killed most of the J2 | 
COC(=O)c1ccccc1OC [M2MOB, Methyl 2-methoxybenzoate] | 48.2 ^bc % | 43.0 ^abc % | 19.1 ^bc % | 8.7 ^abcd | 11.3 ^bc | 11.6 ^abc |  | 5.2 ^de % | 5.9 ^c % | 36.8 | 73.6 ^ab % | 66.3 ^ab % | 59.6 | 35.2 ^ab % | 32.5 ^cd % | 13.9 ^b % | 3.4 ^cd | 8.4 ^bc | 13.9 ^bc | killed more than half | % Viable Day 3 rinsed ([2]; 0.1%, after Day 2 water rinse): did not cause significant reductions; decrease in % active J2 compared with the Tween control (M. incognita eggs; J2 hatched from eggs, 7-day incubation): 86%
